US9017974B2, “Method for the synthesis of porphyrin-phospholipid conjugates” (priority 2011, dated 2015)

Experiments:
Type in all cases: biochemical
[1] = molecular target: T1, Lipase from Rhizomucor miehei (Rhizomucor miehei, UniProt P19515); settings: 37 C, 3 hours, 0.025% Triton X100, 5 mM Tris pH 8, HPLC/MS
T1 sequence (P19515 95-363): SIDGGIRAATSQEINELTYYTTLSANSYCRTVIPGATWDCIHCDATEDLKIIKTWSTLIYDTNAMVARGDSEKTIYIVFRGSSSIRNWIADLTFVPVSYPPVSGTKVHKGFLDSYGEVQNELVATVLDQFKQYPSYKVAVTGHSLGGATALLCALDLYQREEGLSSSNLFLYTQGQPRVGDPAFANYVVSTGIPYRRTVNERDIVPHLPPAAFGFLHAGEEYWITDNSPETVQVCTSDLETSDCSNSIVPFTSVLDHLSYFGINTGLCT

[2] = molecular target: Lipase from Pseudomonas cepacia (Burkholderia cepacia, UniProt P22088); settings: 37 C, 3 hours, 0.025% Triton X100, 5 mM Tris pH 8, HPLC/MS
Lipase from Pseudomonas cepacia, sequence (P22088 45-364): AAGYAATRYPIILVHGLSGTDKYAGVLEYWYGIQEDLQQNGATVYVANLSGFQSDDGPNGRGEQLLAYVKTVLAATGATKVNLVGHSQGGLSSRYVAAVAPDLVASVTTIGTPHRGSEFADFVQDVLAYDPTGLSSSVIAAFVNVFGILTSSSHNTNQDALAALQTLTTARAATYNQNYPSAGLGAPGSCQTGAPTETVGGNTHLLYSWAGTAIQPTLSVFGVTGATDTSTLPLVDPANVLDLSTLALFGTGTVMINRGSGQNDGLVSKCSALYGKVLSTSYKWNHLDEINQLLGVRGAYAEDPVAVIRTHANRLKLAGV

[3] = molecular target: Lipase from Thermomyces lanuginosus (LTL) (Thermomyces lanuginosus, UniProt O59952); settings: pH 8
Lipase from Thermomyces lanuginosus (LTL), sequence (O59952 23-291): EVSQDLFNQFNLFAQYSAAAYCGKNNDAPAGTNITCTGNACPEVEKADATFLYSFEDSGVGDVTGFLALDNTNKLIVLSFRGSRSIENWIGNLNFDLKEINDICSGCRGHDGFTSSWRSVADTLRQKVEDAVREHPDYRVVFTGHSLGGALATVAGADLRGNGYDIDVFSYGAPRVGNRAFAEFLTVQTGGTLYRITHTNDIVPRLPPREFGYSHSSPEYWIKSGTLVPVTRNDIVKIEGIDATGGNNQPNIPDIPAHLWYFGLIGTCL

For `C=Cc1c(C)c2cc3nc(c4c5[nH]c(cc6nc(cc1[nH]2)C(C)=C6CC)c(C)c5C(=O)C4)[C@@H](CCC(=O)O[C@H](COC(=O)CCCCCCCCCCCCCCC)COP(=O)([O-])OCC[N+](C)(C)C)[C@@H]3C` [sn-2 pyro-lipid], which “cleavage of pyro-lipid regioisomer by lipase from Rhizomucor miehei” value [1] is on record?
The value was “preferentially cleaved”.

What about the “cleavage of pyro-lipid regioisomer by lipase from Pseudomonas cepacia” value [2] of the same compound?
Its value is “preferentially cleaved”.

And the “cleavage of pyro-lipid regioisomer by LTL” value [3]?
Its value is “selectively cleaved”.
